Test results published in ChEMBL document CHEMBL6134780, “Halogenated retinoid derivatives as dual RARα and RXRα modulators for treating acute promyelocytic leukemia cells” (Eur J Med Chem, 2024).
Calls of active or inactive are those of the source. The rule behind the calls is not given here.

Experiments:
NB-4 [1] = assay: Induction of cell differentiation in human NB4 cells assessed as NBT positive cells at 0.5 uM incubated for 6 days by Nitro Blue tetrazolium chloride based microscopic analysis (reference value: 0 %); assay type: functional; conditions: time 6 day
NB-4 [2] = assay: Induction of cell death in M phase synchronized human NB4 cells assessed as reduction in mitotic cells at 0.5 uM preincubated for 4 days followed by release from thymidine block for 10 hrs by immunofluorescence staining based analysis; assay type: functional; conditions: time 106.0 hrs
NB-4 [3] = assay: Induction of apoptosis in human NB4 cells assessed as viable cells at 1 uM incubated for 24 hrs by Annexin V-FITC/PI staining based flow cytometric analysis (reference value: 92.36 %); assay type: functional; conditions: read-out: Activity
NB-4 [4] = assay: Induction of apoptosis in human NB4 cells assessed as late apoptotic cells at 1 uM incubated for 24 hrs by Annexin V-FITC/PI staining based flow cytometric analysis (reference value: 3.20 %); assay type: functional
[5] = Induction of apoptosis in human ATRA-resistant NB4-LR2 cells assessed as viable cells at 1 uM incubated for 24 hrs by Annexin V-FITC/PI staining based flow cytometric analysis (reference value: 87.30 %); assay type: functional; conditions: read-out: Activity
K562 = assay: Induction of apoptosis in human K562 cells assessed as late apoptotic cells at 2 uM incubated for 24 hrs by Annexin V-FITC/PI staining based flow cytometric analysis (reference value: 5.98 %); assay type: functional
[6] = target: T1, Retinoic acid receptor gamma (Homo sapiens) (UniProt P13631); assay: Agonist activity at Gal4-fused full length RARgamma LBD (unknown origin) transfected in HEK293T cells co-transfected with pG5luc reporter and Renilla-luc assessed as transactivation at 0.1 to 1 uM incubated for 12 hrs by luciferase reporter gene assay; assay type: cell-based; conditions: dose 0.1-1 µM
T1 sequence (whole entry): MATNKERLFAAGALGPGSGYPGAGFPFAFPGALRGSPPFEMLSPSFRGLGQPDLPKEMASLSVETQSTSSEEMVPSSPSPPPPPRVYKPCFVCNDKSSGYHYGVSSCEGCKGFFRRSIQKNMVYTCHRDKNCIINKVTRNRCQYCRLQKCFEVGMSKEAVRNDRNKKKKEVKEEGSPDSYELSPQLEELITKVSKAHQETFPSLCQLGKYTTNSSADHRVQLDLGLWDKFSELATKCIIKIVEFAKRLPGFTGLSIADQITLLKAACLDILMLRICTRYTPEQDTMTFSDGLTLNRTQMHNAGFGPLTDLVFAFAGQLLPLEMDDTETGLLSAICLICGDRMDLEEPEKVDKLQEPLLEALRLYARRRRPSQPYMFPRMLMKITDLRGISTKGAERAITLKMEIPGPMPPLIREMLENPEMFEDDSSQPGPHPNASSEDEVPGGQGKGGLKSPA

[7] = target: Peroxisome proliferator-activated receptor gamma (Homo sapiens) (UniProt P37231); assay: Agonist activity at Gal4-fused full length PPARgamma LBD (unknown origin) transfected in HEK293T cells co-transfected with pG5luc reporter and Renilla-luc at 0.1 to 1 uM incubated for 12 hrs by luciferase reporter gene assay; assay type: cell-based; conditions: dose 0.1-1 µM
[8] = target: Oxysterols receptor LXR-alpha (Homo sapiens) (UniProt Q13133); assay: Agonist activity at Gal4-fused full length LXRalpha LBD (unknown origin) transfected in HEK293T cells co-transfected with pG5luc reporter and Renilla-luc at 0.1 to 1 uM incubated for 12 hrs by luciferase reporter gene assay; assay type: cell-based; conditions: dose 0.1-1 µM
[9] = target: Estrogen receptor (Homo sapiens) (UniProt P03372); assay: Agonist activity at Gal4-fused full length ERalpha LBD (unknown origin) transfected in HEK293T cells co-transfected with pG5luc reporter and Renilla-luc at 0.1 to 1 uM incubated for 12 hrs by luciferase reporter gene assay; assay type: cell-based; conditions: dose 0.1-1 µM
[10] = target: T2, Retinoic acid receptor RXR-gamma (Homo sapiens) (UniProt P48443); assay: Competitive binding affinity to Gal4-fused full length RXRgamma LBD (unknown origin) transfected in HEK293T cells co-transfected with pG5luc reporter and Renilla-luc at 0.1 to 1 uM incubated for 12 hrs in presence of ATRA by luciferase reporter gene assay; assay type: cell-based; conditions: dose 0.1-1 µM
T2 sequence (whole entry): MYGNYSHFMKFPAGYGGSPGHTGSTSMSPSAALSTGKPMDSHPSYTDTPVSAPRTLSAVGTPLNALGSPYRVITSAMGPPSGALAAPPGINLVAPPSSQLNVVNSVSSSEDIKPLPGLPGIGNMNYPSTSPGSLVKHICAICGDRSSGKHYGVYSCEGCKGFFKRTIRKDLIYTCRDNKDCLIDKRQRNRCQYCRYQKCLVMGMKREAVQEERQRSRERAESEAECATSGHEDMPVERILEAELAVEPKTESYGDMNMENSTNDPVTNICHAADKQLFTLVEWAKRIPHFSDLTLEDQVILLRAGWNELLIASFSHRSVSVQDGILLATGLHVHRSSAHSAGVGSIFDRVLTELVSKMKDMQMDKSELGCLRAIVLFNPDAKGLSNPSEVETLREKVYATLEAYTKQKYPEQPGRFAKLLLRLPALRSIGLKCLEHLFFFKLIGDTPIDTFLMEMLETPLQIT

[11] = target: T3, Retinoic acid receptor RXR-beta (Homo sapiens) (UniProt P28702); assay: Competitive binding affinity to Gal4-fused full length RXRbeta LBD (unknown origin) transfected in HEK293T cells co-transfected with pG5luc reporter and Renilla-luc at 0.1 to 1 uM incubated for 12 hrs in presence of ATRA by luciferase reporter gene assay; assay type: cell-based; conditions: dose 0.1-1 µM
T3 sequence (whole entry): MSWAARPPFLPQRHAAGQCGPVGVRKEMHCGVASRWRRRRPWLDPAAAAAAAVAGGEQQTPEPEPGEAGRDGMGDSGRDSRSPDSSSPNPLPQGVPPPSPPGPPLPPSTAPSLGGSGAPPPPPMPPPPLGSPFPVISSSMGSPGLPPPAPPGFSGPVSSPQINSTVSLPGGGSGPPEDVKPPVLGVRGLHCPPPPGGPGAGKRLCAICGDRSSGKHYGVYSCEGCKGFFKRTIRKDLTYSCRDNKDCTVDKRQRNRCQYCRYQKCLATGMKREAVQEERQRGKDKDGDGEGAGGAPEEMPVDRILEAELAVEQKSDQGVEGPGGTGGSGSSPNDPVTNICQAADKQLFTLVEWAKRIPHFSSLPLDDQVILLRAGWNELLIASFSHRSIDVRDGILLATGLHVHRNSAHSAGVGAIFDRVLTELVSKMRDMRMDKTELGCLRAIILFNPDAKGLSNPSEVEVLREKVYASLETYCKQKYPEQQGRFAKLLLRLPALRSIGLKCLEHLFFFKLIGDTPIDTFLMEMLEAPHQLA

[12] = target: T4, Retinoic acid receptor gamma (Homo sapiens, UniProt P13631); assay: Agonist activity at Gal4-fused full length human RARgamma LBD transfected in HEK293T cells co-transfected with pG5luc reporter and Renilla-luc assessed as transactivation incubated for 12 hrs by dual luciferase reporter gene assay; assay type: cell-based; conditions: read-out: EC50
T4 sequence (P13631 whole entry): T1 sequence (whole entry)

ATRA-resistant NB4-LR2 [13] = assay: Cell cycle arrest in human ATRA-resistant NB4-LR2 cells assessed as increase in PLK1 expression at 2 uM incubated for 3 to 24 hrs by Western blot analysis; assay type: functional, cell-based; conditions: time 3-24 hrs
ATRA-resistant NB4-LR2 [14] = assay: Induction of DNA damage in human ATRA-resistant NB4-LR2 cells assessed as increase in gamma-H2AX expression at 2 uM by Western blot analysis; assay type: functional, cell-based

Sequence of Oxysterols receptor LXR-alpha (Homo sapiens) (Q13133 whole entry, the tested form may be a part): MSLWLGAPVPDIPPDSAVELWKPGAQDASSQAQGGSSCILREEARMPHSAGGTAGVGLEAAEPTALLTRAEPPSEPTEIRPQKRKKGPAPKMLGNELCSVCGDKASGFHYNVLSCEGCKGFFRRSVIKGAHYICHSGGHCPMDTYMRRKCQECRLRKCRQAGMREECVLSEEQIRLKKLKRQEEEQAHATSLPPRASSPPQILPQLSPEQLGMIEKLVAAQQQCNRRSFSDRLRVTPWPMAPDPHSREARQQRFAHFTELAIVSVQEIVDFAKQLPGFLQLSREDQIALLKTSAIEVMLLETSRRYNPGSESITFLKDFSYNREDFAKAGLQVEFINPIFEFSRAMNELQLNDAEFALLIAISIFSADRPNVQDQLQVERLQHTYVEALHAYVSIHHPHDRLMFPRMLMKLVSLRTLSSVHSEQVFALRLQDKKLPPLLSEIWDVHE
Sequence of Estrogen receptor (Homo sapiens) (P03372 whole entry, the tested form may be a part): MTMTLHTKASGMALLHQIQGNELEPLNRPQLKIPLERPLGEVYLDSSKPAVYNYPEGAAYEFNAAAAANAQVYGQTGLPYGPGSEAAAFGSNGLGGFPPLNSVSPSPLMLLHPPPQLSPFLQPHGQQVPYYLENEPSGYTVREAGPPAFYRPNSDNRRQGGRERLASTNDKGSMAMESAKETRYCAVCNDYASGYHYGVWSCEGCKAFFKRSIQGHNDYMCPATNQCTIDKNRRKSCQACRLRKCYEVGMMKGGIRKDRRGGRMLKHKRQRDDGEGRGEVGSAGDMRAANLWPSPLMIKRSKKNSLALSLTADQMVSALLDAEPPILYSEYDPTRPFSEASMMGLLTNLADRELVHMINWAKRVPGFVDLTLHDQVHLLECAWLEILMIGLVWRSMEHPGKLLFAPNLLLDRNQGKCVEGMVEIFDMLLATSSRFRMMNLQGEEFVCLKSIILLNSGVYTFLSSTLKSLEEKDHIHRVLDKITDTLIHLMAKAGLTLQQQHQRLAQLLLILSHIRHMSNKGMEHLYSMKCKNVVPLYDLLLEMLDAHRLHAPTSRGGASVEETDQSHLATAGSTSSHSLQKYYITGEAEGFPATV
Sequence of Peroxisome proliferator-activated receptor gamma (Homo sapiens) (P37231 whole entry, the tested form may be a part): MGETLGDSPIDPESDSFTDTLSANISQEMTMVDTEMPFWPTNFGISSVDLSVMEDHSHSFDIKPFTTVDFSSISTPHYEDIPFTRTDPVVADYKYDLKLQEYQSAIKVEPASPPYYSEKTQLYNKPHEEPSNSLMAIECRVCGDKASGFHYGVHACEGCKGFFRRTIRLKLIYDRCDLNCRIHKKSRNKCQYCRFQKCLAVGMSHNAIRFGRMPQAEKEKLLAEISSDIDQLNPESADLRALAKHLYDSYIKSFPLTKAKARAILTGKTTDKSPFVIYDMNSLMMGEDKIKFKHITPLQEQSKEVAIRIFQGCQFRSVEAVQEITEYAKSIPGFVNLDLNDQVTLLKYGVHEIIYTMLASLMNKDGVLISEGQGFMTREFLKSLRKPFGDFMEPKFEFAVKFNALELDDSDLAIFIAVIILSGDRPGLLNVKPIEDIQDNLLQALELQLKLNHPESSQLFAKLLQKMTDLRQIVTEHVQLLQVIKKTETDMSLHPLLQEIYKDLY

Structure (SMILES) | Activity (NB-4 [1]) | Activity (NB-4 [2]) | viability at 1 µM (NB-4 [3]) | Activity (NB-4 [4]) | viability at 1 µM [5] | Activity (K562) | Activity [6] | Activity [7] | Activity [8] | Activity [9] | Activity [10] | Activity [11] | EC50 [12] | Activity (ATRA-resistant NB4-LR2 [13]) | Activity (ATRA-resistant NB4-LR2 [14])
Cc1cc2c(cc1C(=O)/C(Br)=C\c1ccc(C(=O)O)cc1)C(C)(C)CCC2(C)C | 69% | Active | 76.7% | 10.49% | 67.8% | 7.14% | Weak_effect | Weak_effect | Minimal_effect | Minimal_effect | Not active; No Significant Competitive Effect On Atra Activation Observed | Not active; No Significant Competitive Effect On Atra Activation Observed | 1140 nM | Active | Active; Dna Damage Detected When Apoptosis Occurred
Cc1cc2c(cc1C(=O)/C(Br)=C/c1ccc(C(=O)O)cc1)C(C)(C)CCC2(C)C | 64% | Active | 59.8% | 15.77% | 56.2% | 7.92% | Weak_effect | Weak_effect | Minimal_effect | Minimal_effect | Not active; No Significant Competitive Effect On Atra Activation Observed | Not active; No Significant Competitive Effect On Atra Activation Observed | 2240 nM | Active | Active; Dna Damage Detected When Apoptosis Occurred
